Where “and” joins values, the source holds several entries; their conditions need not be identical. Equal entries are not always repeated. Where two headings read alike, the source gives them in different places.
Legend:
[1] = biological target: NRAS G12C (Homo sapiens, UniProt P01111+P62937, G12C); test: Disruption of BRAF RBD interaction with Ras (FRET / MOA assay, with Cyclophilin A); format: biochemical
[2] = biological target: KRAS G12S (Homo sapiens, UniProt P01116+P62937, G12S); test: as above; format: biochemical
Sequence of KRAS G12S (P01116 1-169 isoform P01116-2 G12S limits assumed): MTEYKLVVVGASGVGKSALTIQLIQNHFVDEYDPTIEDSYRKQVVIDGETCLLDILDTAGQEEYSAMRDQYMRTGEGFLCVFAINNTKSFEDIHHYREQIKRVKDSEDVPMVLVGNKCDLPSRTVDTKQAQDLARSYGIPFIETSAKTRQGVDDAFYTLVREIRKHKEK
Sequence of KRAS G12S (P62937 whole entry): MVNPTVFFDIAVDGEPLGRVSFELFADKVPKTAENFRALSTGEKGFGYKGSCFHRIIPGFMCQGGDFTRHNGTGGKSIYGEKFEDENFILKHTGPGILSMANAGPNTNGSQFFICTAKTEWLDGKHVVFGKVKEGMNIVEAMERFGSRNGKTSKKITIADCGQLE
Method in brief: (§1)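 Compound-driven ternary complex formation between nucleotide-loaded K-Ras and Cyclophilin A was measured as loss of BRAF RBD binding. Compounds (10-point 3-fold series, top 30 μM final) were incubated 3 h at 25 °C, then anti-His Eu-W1024 (10 nM) and anti-GST allophycocyanin (50 nM) added for 1.5 h. IC50 was taken from the TR-FRET ratio decrease versus DMSO.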

[3] = biological target: KRAS G13C (Homo sapiens, UniProt P01116+P62937, G13C); test: as above; format: biochemical
Sequence of KRAS G13C (P01116 1-169 isoform P01116-2 G13C): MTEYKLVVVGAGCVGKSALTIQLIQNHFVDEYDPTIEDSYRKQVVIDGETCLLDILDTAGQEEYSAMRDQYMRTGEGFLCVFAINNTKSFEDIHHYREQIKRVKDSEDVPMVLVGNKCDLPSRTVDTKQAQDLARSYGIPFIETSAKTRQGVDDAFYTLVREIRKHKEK
Sequence of KRAS G13C (P62937 whole entry): as the sequence (P62937 whole entry) above
Method in brief: as §1

[4] = biological target: KRAS G12V (Homo sapiens, UniProt P01116+P62937, G12V); test: as above; format: biochemical
Sequence of KRAS G12V (P01116 1-169 isoform P01116-2 G12V limits assumed): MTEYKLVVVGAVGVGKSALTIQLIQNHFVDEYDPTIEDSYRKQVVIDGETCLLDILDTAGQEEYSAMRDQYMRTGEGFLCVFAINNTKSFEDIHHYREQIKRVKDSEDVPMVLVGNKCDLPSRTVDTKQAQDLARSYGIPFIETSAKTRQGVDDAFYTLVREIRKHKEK
Sequence of KRAS G12V (P62937 whole entry): as the sequence (P62937 whole entry) above
Method in brief: as §1

[5] = biological target: KRAS G12D (Homo sapiens, UniProt P01116+P62937, G12D); test: as above; format: biochemical
Sequence of KRAS G12D (P01116 1-169 isoform P01116-2 G12D limits assumed): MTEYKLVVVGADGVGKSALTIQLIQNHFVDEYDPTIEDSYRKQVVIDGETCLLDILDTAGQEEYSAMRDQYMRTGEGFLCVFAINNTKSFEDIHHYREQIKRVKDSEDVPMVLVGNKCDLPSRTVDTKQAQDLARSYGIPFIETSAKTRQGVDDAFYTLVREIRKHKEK
Sequence of KRAS G12D (P62937 whole entry): as the sequence (P62937 whole entry) above
Method in brief: as §1

[6] = biological target: KRAS G13D (Homo sapiens, UniProt P01116+P62937, G13D); test: as above; format: biochemical
Sequence of KRAS G13D (P01116 1-169 isoform P01116-2 G13D limits assumed): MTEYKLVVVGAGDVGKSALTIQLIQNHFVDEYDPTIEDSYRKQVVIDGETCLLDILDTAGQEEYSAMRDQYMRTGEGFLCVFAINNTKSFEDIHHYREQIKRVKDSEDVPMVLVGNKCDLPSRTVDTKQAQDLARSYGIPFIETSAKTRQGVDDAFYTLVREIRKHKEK
Sequence of KRAS G13D (P62937 whole entry): as the sequence (P62937 whole entry) above
Method in brief: as §1

[7] = biological target: KRAS G12C (Homo sapiens, UniProt P01116+P62937, G12C); test: as above; format: biochemical
Sequence of KRAS G12C (P01116 1-169 isoform P01116-2 G12C): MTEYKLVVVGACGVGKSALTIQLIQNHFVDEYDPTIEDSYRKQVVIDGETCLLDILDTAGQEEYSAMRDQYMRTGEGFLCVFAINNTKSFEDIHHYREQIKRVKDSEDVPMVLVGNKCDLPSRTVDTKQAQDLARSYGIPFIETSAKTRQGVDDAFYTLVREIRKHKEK
Sequence of KRAS G12C (P62937 whole entry): as the sequence (P62937 whole entry) above
Method in brief: as §1

[8] = biological target: KRAS WT (Homo sapiens, UniProt P01116+P62937); test: as above; format: biochemical
Sequence of KRAS WT (P01116 1-169 isoform P01116-2 limits assumed): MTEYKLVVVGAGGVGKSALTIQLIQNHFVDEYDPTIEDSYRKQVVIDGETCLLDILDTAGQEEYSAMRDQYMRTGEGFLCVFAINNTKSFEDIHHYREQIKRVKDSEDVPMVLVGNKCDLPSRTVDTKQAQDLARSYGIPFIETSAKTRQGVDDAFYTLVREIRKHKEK
Sequence of KRAS WT (P62937 whole entry): as the sequence (P62937 whole entry) above
Method in brief: as §1

[9] = test system: NCI-H358 (K-Ras G12C); test: CellTiter-Glo cell viability assay, 5-day treatment; format: cell-based; settings: Homo sapiens, NCI-H358, 120 h, 5-day treatment; read-out: H358 Cell Viability assay data (K-Ras G12C, IC50)
Method in brief: (§2)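 Compounds were dispensed directly onto seeded cells and incubated for 5 days, then plates were equilibrated to room temperature for about 30 minutes before luminescence reading. Signals were expressed as percent of the mean DMSO control and fitted with a four-parameter logistic curve.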

[10] = test system: Capan-1 (K-Ras G12V); test: as above; format: cell-based; settings: Homo sapiens, CAPAN-1, 120 h, 5-day treatment; read-out: Capan-1 Cell Viability assay data (K-Ras G12V, IC50)
Method in brief: as §2

[11] = NRAS G12C, read-out: NRAS G12C FRET data IC50
[12] = read-out: KRAS G12S FRET data, IC50
[13] = read-out: KRAS G13C FRET data, IC50
[14] = KRAS G12V, read-out: KRAS G12V FRET data IC50
[15] = read-out: KRAS G12D FRET data, IC50
[16] = KRAS G13D, read-out: KRAS G13D FRET data IC50
[17] = read-out: KRAS G12C FRET data, IC50
[18] = KRAS WT, read-out: KRAS WT FRET data IC50

Sequence of NRAS G12C (P01111 whole entry G12C): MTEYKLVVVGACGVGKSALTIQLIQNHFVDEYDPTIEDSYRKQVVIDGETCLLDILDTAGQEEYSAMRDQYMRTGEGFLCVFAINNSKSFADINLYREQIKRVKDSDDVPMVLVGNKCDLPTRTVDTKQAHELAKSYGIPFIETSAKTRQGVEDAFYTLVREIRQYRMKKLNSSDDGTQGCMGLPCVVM
Sequence of NRAS G12C (P62937 whole entry): as the sequence (P62937 whole entry) above

SMILES | IC50 [1, 11] [nM] | IC50 [2, 12] | IC50 [3, 13] [nM] | IC50 [4, 14] | IC50 [5, 15] | IC50 [6, 16] [nM] | IC50 [7, 17] | IC50 [8, 18] | IC50 [9] [nM] | IC50 [10] [nM] | IC50 ([1]; NRAS G12C FRET data IC50, NRAS G12C) [nM] | IC50 ([2]; KRAS G12S FRET data, IC50) [nM] | IC50 ([3]; KRAS G13C FRET data, IC50) [nM] | IC50 ([4]; KRAS G12V FRET data IC50, KRAS G12V) [nM] | IC50 ([5]; KRAS G12D FRET data, IC50) [nM] | IC50 ([6]; KRAS G13D FRET data IC50, KRAS G13D) [nM] | IC50 ([7]; KRAS G12C FRET data, IC50) [nM] | IC50 ([8]; KRAS WT FRET data IC50, KRAS WT) [nM]
CCn1c(-c2cccnc2[C@H](C)OC)c2c3cc(ccc31)-c1cc(O)cc(c1)C[C@H](NC(=O)[C@H](C(C)C)N(C)C(=O)[C@H]1C[C@H](O)C1)C(=O)N1CCC[C@H](N1)C(=O)OCC(C)(C)C2 [Example A241] | 100 to 1000 | 100 to 1000 nM | 10 to 100 | 100 to 1000 nM | 100 to 1000 nM | 100 to 1000 | 10 to 100 nM | 10 to 100 nM | 100 to 1000 | 100 to 1000 | – | – | – | – | – | – | – | –
CCn1c(-c2cnccc2COC)c2c3cc(ccc31)-c1cc(O)cc(c1)C[C@H](NC(=O)C1CCCC1C(F)F)C(=O)N1CCC[C@H](N1)C(=O)OCC(C)(C)C2 (stereo partly shown) [Example A261] | 1000 to 10000 | 1000 to 10000 nM | 1000 to 10000 | 1000 to 10000 nM | > 10000 nM | 1000 to 10000 | 1000 to 10000 nM | 1000 to 10000 nM | 1000 to 10000 | 1000 to 10000 | – | – | – | – | – | – | – | –
CCn1c(-c2cccnc2[C@H](C)OC)c2c3cc(ccc31)-c1csc(n1)C[C@H](NC(=O)[C@H](C(C)C)N(C)C(=O)N1CCOC3(CN(C)C3)C1)C(=O)N1CCC[C@H](N1)C(=O)OCC(C)(C)C2 [Example A294] | 100 to 1000 | 100 to 1000 nM | 100 to 1000 | 100 to 1000 nM | 100 to 1000 nM | 100 to 1000 | 100 to 1000 nM | 100 to 1000 nM | 10 to 100 | 100 to 1000 | – | – | – | – | – | – | – | –
CCn1c(-c2cccnc2[C@H](C)OC)c2c3cc(ccc31)-c1cc(O)cc(c1)C[C@H](NC(=O)[C@H](C(C)C)N(C)C(=O)C13CNCC1C3)C(=O)N1CCC[C@H](N1)C(=O)OCC(C)(C)C2 (stereo partly shown) [Example A155] | 100 to 1000 | 100 to 1000 nM | 10 to 100 | 100 to 1000 nM | 100 to 1000 nM | 10 to 100 | 10 to 100 nM | 10 to 100 nM | 100 to 1000 | 1000 to 10000 | – | – | – | – | – | – | – | –
CCn1c(-c2cccnc2[C@H](C)OC)c2c3cc(ccc31)-c1cc(O)cc(c1)C[C@H](NC(=O)[C@H](C(C)C)N(C)C(=O)C1NCCC1C(C)C)C(=O)N1CCC[C@H](N1)C(=O)OCC(C)(C)C2 (stereo partly shown) [Example A227] | 100 to 1000 | 100 to 1000 nM and 10 to 100 nM | 10 to 100 | 100 to 1000 nM and 1000 to 10000 nM | 100 to 1000 nM and 10 to 100 nM | 10 to 100 | 100 to 1000 nM and 10 to 100 nM | 100 to 1000 nM and 10 to 100 nM | 1000 to 10000 | > 10000 | – | – | – | – | – | – | – | –
CCn1c(-c2cccnc2[C@H](C)OC)c2c3cc(ccc31)-c1cc(O)cc(c1)C[C@H](NC(=O)[C@H](C(C)C)N(C)C(=O)C1COC1)C(=O)N1CCC[C@H](N1)C(=O)OCC(C)(C)C2 [Example A18] | 100 to 1000 | 100 to 1000 nM | 100 to 1000 | 100 to 1000 nM | 1000 to 10000 nM | 100 to 1000 | 10 to 100 nM | 100 to 1000 nM | 100 to 1000 | 100 to 1000 | – | – | – | – | – | – | – | –
CCn1c(-c2cccnc2[C@H](C)OC)c2c3cc(ccc31)-c1cc(O)cc(c1)C[C@H](NC(=O)[C@H](C(C)C)N(C)C(=O)[C@H]1CCN(C)C1)C(=O)N1CCC[C@H](N1)C(=O)OCC(C)(C)C2 [Example A100] | 10 to 100 | 10 to 100 nM | 10 to 100 | 100 to 1000 nM | 10 to 100 nM | 10 to 100 | 10 to 100 nM | 10 to 100 nM | 100 to 1000 | 1000 to 10000 | – | – | – | – | – | – | – | –
CCn1c(-c2cccnc2[C@H](C)OC)c2c3cc(ccc31)-c1csc(n1)C[C@H](NC(=O)[C@H](C(C)C)N(C)C(=O)[C@H]1CCCO1)C(=O)N1CCC[C@H](N1)C(=O)OCC(C)(C)C2 [Example A238] | 1000 to 10000 | 1000 to 10000 nM | 1000 to 10000 | 1000 to 10000 nM | > 10000 nM | 1000 to 10000 | 1000 to 10000 nM | 1000 to 10000 nM | 100 to 1000 | 100 to 1000 | – | – | – | – | – | – | – | –
CCn1c(-c2cccnc2[C@H](C)OC)c2c3cc(ccc31)-c1cc(O)cc(c1)C[C@H](NC(=O)[C@H](C(C)C)N(C)C(=O)Cc1cc[nH]n1)C(=O)N1CCC[C@H](N1)C(=O)OCC(C)(C)C2 [Example A126] | 100 to 1000 | 100 to 1000 nM | 10 to 100 | 100 to 1000 nM | 100 to 1000 nM | 100 to 1000 | 10 to 100 nM | 10 to 100 nM | 100 to 1000 | 100 to 1000 | – | – | – | – | – | – | – | –
CCn1c(-c2cccnc2[C@H](C)OC)c2c3cc(ccc31)-c1csc(n1)C[C@H](NC(=O)[C@H](C(C)C)N(C)C(=O)N1CC(N3CCCC3)C1)C(=O)N1CCC[C@H](N1)C(=O)OCC(C)(C)C2 [Example A329] | 100 to 1000 | 100 to 1000 nM | 100 to 1000 | 100 to 1000 nM | 1000 to 10000 nM | 100 to 1000 | 100 to 1000 nM | 100 to 1000 nM | 10 to 100 | 10 to 100 | – | – | – | – | – | – | – | –
CCn1c(-c2cccnc2[C@H](C)OC)c2c3cc(ccc31)-c1cc(O)cc(c1)C[C@H](NC(=O)[C@H](C(C)C)N(C)C(=O)C1CCN3CCOCC13)C(=O)N1CCC[C@H](N1)C(=O)OCC(C)(C)C2 (stereo partly shown) [Example A123] | – | – | – | – | – | – | – | – | 100 to 1000 | 100 to 1000 | 100 to 1000 | 100 to 1000 | 10 to 100 | 100 to 1000 | 100 to 1000 | 100 to 1000 | 100 to 1000 | 100 to 1000
CCn1c(-c2cccnc2[C@H](C)OC)c2c3cc(ccc31)-c1cc(O)cc(c1)C[C@H](NC(=O)[C@H](C(C)C)N(C)C(=O)C1(O)CC1)C(=O)N1CCC[C@H](N1)C(=O)OCC(C)(C)C2 (atropisomer, axis not shown) [Example A132] | 100 to 1000 | 100 to 1000 nM | 10 to 100 | 100 to 1000 nM | 100 to 1000 nM | 100 to 1000 | 10 to 100 nM | 100 to 1000 nM | 100 to 1000 | 10 to 100 | – | – | – | – | – | – | – | –
CCn1c(-c2cccnc2[C@H](C)OC)c2c3cc(ccc31)-c1cc(O)cc(c1)C[C@H](NC(=O)[C@H](C(C)C)N(C)C(=O)[C@H]1CCN(C(=O)CN)C1)C(=O)N1CCC[C@H](N1)C(=O)OCC(C)(C)C2 [Example A1] | 10 to 100 | 10 to 100 nM | 10 to 100 | 10 to 100 nM | 10 to 100 nM | 10 to 100 | 10 to 100 nM | 10 to 100 nM | 1000 to 10000 | 1000 to 10000 | – | – | – | – | – | – | – | –
